Test results published in publication PMC3916150 (Journal of medicinal chemistry, 2013).
Where two headings read alike, the source gives them in different places.

What was measured:
[1] = system: HuT-78 (human T-cell lymphoma) cells; assay: Caspase-Glo 3/7 apoptosis assay in CTCL cells; format: cell-based; conditions: 100 nM
[2] = system: VDR-RXR; conditions: for inhibition of VDR activity compared with compound 1: both assays (10^-6 M and 10^-7 M), ER6 VDRE
[3] = target: T1, human RARα (Homo sapiens, UniProt P10276); assay: RAR/RARE-luciferase reporter assay in HCT-116 cells; conditions: RARE-luciferase, versus all-trans retinoic acid
T1 sequence (P10276 1-462): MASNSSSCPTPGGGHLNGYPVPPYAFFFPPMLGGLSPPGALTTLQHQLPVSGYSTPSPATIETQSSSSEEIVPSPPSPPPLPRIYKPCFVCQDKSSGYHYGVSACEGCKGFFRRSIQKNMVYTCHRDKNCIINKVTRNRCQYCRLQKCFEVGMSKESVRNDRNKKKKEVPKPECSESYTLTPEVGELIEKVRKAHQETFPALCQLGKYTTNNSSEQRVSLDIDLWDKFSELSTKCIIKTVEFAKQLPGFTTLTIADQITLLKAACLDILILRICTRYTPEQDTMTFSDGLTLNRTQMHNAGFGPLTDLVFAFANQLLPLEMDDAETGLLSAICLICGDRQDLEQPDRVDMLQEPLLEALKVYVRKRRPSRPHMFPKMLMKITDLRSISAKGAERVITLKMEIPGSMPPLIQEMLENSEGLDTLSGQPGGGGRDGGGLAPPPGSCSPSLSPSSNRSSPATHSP

[4] = target: T2, human RXR (Homo sapiens, UniProt P19793); assay: RXR mammalian two-hybrid; conditions: for RXR-mediated transcriptional activity: data in Figures 4 and 5 (M2H and RXRE assays); for RXR binding and homodimerization (luciferase output) compared to compound 1: 24 h
T2 sequence (P19793 1-462) 1: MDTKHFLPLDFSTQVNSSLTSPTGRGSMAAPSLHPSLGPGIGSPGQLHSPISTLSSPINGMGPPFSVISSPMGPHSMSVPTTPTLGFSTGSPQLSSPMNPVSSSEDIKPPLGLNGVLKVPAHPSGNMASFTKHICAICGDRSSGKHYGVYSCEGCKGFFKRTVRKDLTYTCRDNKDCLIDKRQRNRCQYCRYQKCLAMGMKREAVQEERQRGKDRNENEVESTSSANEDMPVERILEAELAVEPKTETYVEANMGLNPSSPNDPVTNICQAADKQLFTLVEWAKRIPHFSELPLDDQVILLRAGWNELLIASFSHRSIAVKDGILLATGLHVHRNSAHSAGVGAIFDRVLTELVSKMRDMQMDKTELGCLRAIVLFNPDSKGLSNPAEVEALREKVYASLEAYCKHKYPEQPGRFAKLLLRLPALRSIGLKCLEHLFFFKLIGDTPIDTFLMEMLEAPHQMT
T2 sequence (P19793 1-462) 2: T2 sequence (P19793 1-462) 1

[5] = target: T3, human RXRα (Homo sapiens, UniProt P19793); assay: RXRE-luciferase reporter transcription assay in HCT-116 cells; format: cell-based; conditions: 25 nM and 100 nM (both assays), HCT-116, Figure 5A and B
T3 sequence (P19793 1-462): T2 sequence (P19793 1-462) 1

[6] = 1,000 nM analog + 1 nM 1,25D, Fig. 7B
[7] = 100 nM analog + 1 nM 1,25D, Fig. 7A
[8] = 100 nM analog + 1 nM 1,25D, Fig. 7C
[9] = 100 nM analog + 1 nM 1,25D, Fig. 7E
[10] = 1,000 nM analog + 1 nM 1,25D, Fig. 7F

Molecule	apoptosis compared to ethanol vehicle control ([1]; 24 hours)	apoptosis compared to ethanol vehicle control ([1]; 48 hours)	ER6 VDRE-mediated activity versus 1,25D alone [2, 6]	inhibition of VDR activity compared with compound 1 [2]	RAR agonist activity compared to bexarotene [3]	ER6 VDRE-mediated activity versus 1,25D alone [2, 7]	RXR-mediated transcriptional activity [4]	DR3 VDRE-mediated activity versus 1,25D alone [2, 8]	CYP24 natural promoter 1,25D-VDR transactivation versus 1,25D alone [2, 9]	CYP24 natural promoter 1,25D-VDR transactivation versus 1,25D alone [2, 10]	RXR binding and homodimerization (luciferase output) compared to compound 1 ([4]; 25 nM, HCT-116, Figure 4A)	RXR binding and homodimerization (luciferase output) compared to compound 1 ([4]; 100 nM, HCT-116, Figure 4B)	DR3 VDRE-mediated activity versus 1,25D alone ([2]; 1,000 nM analog + 1 nM 1,25D, Fig. 7D)	RXRE-mediated transcriptional activity compared to compound 1 [5]
Cc1cc2c(cc1C1(c3ncc(C(=O)O)cn3)CC1)C(C)(C)CCC2(C)C [Compound 14]	greater than the ethanol vehicle control	greater than the ethanol vehicle control	significantly lower	inhibited VDR activity less	greater RAR agonist activity	–	–	–	–	–	–	–	–	–
Cc1cc2c(cc1C1(c3ccc(C(=O)O)cn3)CC1)C(C)(C)CCC2(C)C [Compound 9, 6-[1-(3,5,5,8,8-Pentamethyl-5,6,7,8-tetrahydronaphthalen-2-yl)cyclopropyl]nicotinic Acid, reference compound]	greater than the ethanol vehicle control	greater than the ethanol vehicle control	significantly lower	–	–	significantly lower	–	–	–	–	–	–	–	–
Cc1cc2c(cc1-c1cccc(/C=C/C(=O)O)c1)C(C)(C)CCC2(C)C [Compound 12, (E)-3-(3-(1,2,3,4-tetrahydro-1,1,4,4,6-pentamethylnaphthalen-7-yl)phenyl)acrylic acid, reference compound]	greater than the ethanol vehicle control	–	significantly lower	–	slightly lower RAR-directed activity	–	consistently lower RXR-mediated transcriptional activity	significantly lower	significant inhibiton	significant inhibiton	–	–	–	–
Cc1cc2c(cc1-c1cc(/C=C/C(=O)O)ccc1C(F)(F)F)C(C)(C)CCC2(C)C [Compound 16, (E)-3-(4-(trifluoromethyl)-3-(1,2,3,4-tetrahydro-1,1,4,4,6-pentamethylnaphthalen-7-yl)phenyl)acrylic acid]	greater than the ethanol vehicle control	–	significantly lower	–	slightly lower RAR-directed activity	–	consistently lower RXR-mediated transcriptional activity	–	–	–	–	–	–	–
Cc1ccc(/C=C/C(=O)O)cc1-c1cc2c(cc1C)C(C)(C)C=CC2(C)C [Compound 17, (2E)-3-(3-(1,4-dihydro-1,1,4,4,6-pentamethylnaphthalen-7-yl)-4-methylphenyl)acrylic acid]	greater than the ethanol vehicle control	greater than the ethanol vehicle control	significantly lower	inhibited VDR activity less	greater RAR agonist activity	–	consistently lower RXR-mediated transcriptional activity	significantly lower	–	–	–	–	–	–
Cc1ccc(/C=C/C(=O)O)cc1-c1cc2c(cc1C)C(C)(C)CCC2(C)C [Compound 15, (E)-3-(3-(1,2,3,4-tetrahydro-1,1,4,4,6-pentamethylnaphthalen-7-yl)-4-methylphenyl)acrylic acid]	–	–	significantly lower	–	greater RAR agonist activity	significantly lower	consistently more active	–	–	–	greater activity than compound 1	high activity compared with compound 1	significantly higher	–
C=C(c1ccc(C(=O)O)cc1)c1cc2c(cc1C)C(C)(C)C=CC2(C)C [Compound 10, 4-[1-(3,5,5,8,8-Pentamethyl-2–5,8-dihydronaphthyl)vinyl]benzoic Acid, reference compound]	greater than the ethanol vehicle control	–	–	inhibited VDR activity less	greater RAR agonist activity	–	–	–	–	–	–	–	–	transcriptional activity consistently above the compound 1 level
C=C(c1ccc(C(=O)O)c(F)c1)c1cc2c(cc1C)C(C)(C)C=CC2(C)C [Compound 19, 2-Fluoro-4-(1-(1,4-dihydro-1,1,4,4,6-pentamethylnaphthalen-7-yl)vinyl)benzoic acid]	greater than the ethanol vehicle control	greater than the ethanol vehicle control	significantly lower	–	greater RAR agonist activity	–	consistently lower RXR-mediated transcriptional activity	–	significant inhibiton	–	–	–	–	–
Cc1cc2c(cc1-c1cc(/C=C/C(=O)O)ccc1O)C(C)(C)CCC2(C)C [Compound 11, (E)-3-(3-(1,2,3,4-tetrahydro-1,1,4,4,6-pentamethylnaphthalen-7-yl)-4-hydroxyphenyl)acrylic acid, reference compound]	–	–	significantly lower	–	slightly lower RAR-directed activity	significantly lower	consistently more active	–	–	–	greater activity than compound 1	high activity compared with compound 1	–	–
Cc1cc2c(cc1-c1cc(/C=C/C(=O)O)ccc1O)C(C)(C)C=CC2(C)C [Compound 18, (2E)-3-(3-(1,4-dihydro-1,1,4,4,6-pentamethylnaphthalen-7-yl)-4-hydroxyphenyl)acrylic acid]	greater than the ethanol vehicle control	greater than the ethanol vehicle control	significantly lower	–	approximately equal to bexarotene	–	consistently more active	–	significant inhibiton	significant inhibiton	approaching statistical significance	–	–	–
Methyl 2-(1-(1,2,3,4-tetrahydro-1,1,4,4,6-pentamethylnaphthalen-7-yl)vinyl)pyridine-5-carboxylate [Compound 13]	greater than the ethanol vehicle control	greater than the ethanol vehicle control	significantly lower	inhibited VDR activity less	greater RAR agonist activity	–	–	–	–	–	–	–	–	–
